Some results are limits rather than exact numbers.

Test [1] concerns BROTE (downy brome). In words: Post-Emergent Test III (Wheat and Barley). Format: in vivo, Bromus tectorum. The following applies: for Visual Growth Reduction (%) 21 Days After Application, BROTE: postemergence; for GR50, BROTE: effective dose for growth reduction of 50 percent; for GR50, BROTE / GR80, BROTE / GR90, BROTE: probit analysis; for GR80, BROTE: effective dose for growth reduction of 80 percent; for GR90, BROTE: effective dose for growth reduction of 90 percent. The procedure: Seeds of the desired test plant species were planted in Sun Gro MetroMix® 306 planting mixture, which typically has a pH of 6.0 to 6.8 and an organic matter content of about 30 percent, in plastic pots with a surface area of 103.2 square centimeters (cm^2). When required to ensure good germination and healthy plants, a fungicide treatment and/or other chemical or physical treatment was applied. The plants were grown for 7-36 days in a greenhouse with an approximate 14 h photoperiod which was maintained at about 18° C. during the day and 17° C. during the night. Nutrients and water were added on a regular basis and supplemental lighting was provided with overhead metal halide 1000-Watt lamps as necessary. The plants were employed for testing when they reached the second or third true leaf stage.
A weighed amount, determined by the highest rate to be tested, of each test compound was placed in a 25 mL glass vial and was dissolved in 4 mL of a 97:3 v/v mixture of acetone and DMSO to obtain concentrated stock solutions. […] The concentrated stock solutions obtained were diluted with 20 mL of an aqueous mixture containing acetone, water, isopropyl alcohol, DMSO, Agri-Dex crop oil concentrate, and X-77 surfactant in a 48:39:10:1.5:1.5:0.02 v/v ratio to obtain spray solutions containing the highest application rates. Additional application rates were obtained by serial dilution of 12 mL of the high rate solution into a solution containing 2 mL of 97:3 v/v mixture of acetone and DMSO and 10 mL of an aqueous mixture containing acetone, water, isopropyl alcohol, DMSO, Agri-Dex crop oil concentrate, and X-77 surfactant in a 48:39:10:1.5:1.5:0.02 v/v ratio to obtain ½×, ¼×, ⅛× and 1/16× rates of the high rate. Compound requirements are based upon a 12 mL application volume at a rate of 187 liters per hectare (L/ha). Formulated compounds were applied to the plant material with an overhead Mandel track sprayer equipped with 8002E nozzles calibrated to deliver 187 L/ha over an application area of 0.503 square meters at a spray height of 18 inches (43 cm) above the average plant canopy height. Control plants were sprayed in the same manner with the solvent blank.
The treated plants and control plants were placed in a greenhouse as described above and watered by subirrigation to prevent wash-off of the test compounds. After 21 dAYS, the condition of the test plants as compared with that of the untreated plants was determined visually and scored on a scale of 0 to 100 percent where 0 corresponds to no injury and 100 corresponds to complete kill and presented as indicated in Table A.
By applying the well-accepted probit analysis as described by J. Berkson in Journal of the American Statistical Society, 48, 565 (1953) and by D. Finney in “Probit Analysis” Cambridge University Press (1952), herbicidal injury of a specific compound at various rates can be used to calculate GR10, GR20, GR50, GR80 and GR90 values, which are defined as growth reduction factors that correspond to the effective dose of herbicide required to provide plant growth reduction (GR) of 10 percent, 20 percent, 50 percent, 80 percent and 90 percent, respectively. Probit analysis was applied to data collected from multiple dose rates of individual compounds utilizing the procedures explained in the following examples. The analysis of those dose rates is captured in the following tables.

In test [2] the test system is IPOSS (IPOHE: ivyleaf morningglory (Ipomoea hederecea)). As to the kind of experiment: Pre-Emergent Test I. Format: in vivo. To be noted: preemergence. The procedure: (§1) Pre-Emergent Test I Seeds of test species were planted into round plastic pots (5-inch diameter) containing sandy loam soil. After planting, all pots were sub-irrigated 16 h prior to compound application. Compounds were dissolved in a 97:3 v/v mixture of acetone and DMSO and diluted to the appropriate concentration in a final application solution containing water, acetone, isopropanol, DMSO and Agri-dex (crop oil concentrate) in a 59:23:15:1.0:1.5 v/v ratio and 0.02% w/v (weight/volume) of Triton X-155 to obtain the spray solution containing the highest application rate. Additional application rates were obtained by serial dilution of the high rate solution with the above application solution Formulated compound (2.7 mL) was pipetted evenly over the soil surface followed by incorporation with water (15 mL). Following treatment, pots were returned to the greenhouse for the duration of the experiment. The greenhouse was programmed for an approximate 15 h photoperiod which was maintained at about 23-29° C. during the day and 22-28° C. during the night. Nutrients and water were added on a regular basis through surface irrigation and supplemental lighting was provided with overhead metal halide 1000-Watt lamps as necessary. Herbicidal effect ratings were obtained 14 days after treatment. All evaluations were made relative to appropriate controls on a scale of 0 to 100 where 0 represents no herbicidal effect and 100 represents plant death or lack of emergence from the soil and presented in Table A. Some of the compounds tested, application rates employed, plant species tested, and results are given in Table 4.

Test [3] concerns HELAN: sunflower (Helianthus annuus). As to the kind of experiment: Pre-Emergent Test I. The test is classed as in vivo. The following applies: preemergence. On the procedure: as §1
Test [4] concerns AVEFA: wild oats (Avena fatua). As to the kind of experiment: Pre-Emergent Test I. The test is classed as in vivo. To be noted: preemergence. The procedure: as §1
The subject of test [5] is ECHSS (ECHCG: barnyardgrass (Echinochloa crus-galli)). In words: Pre-Emergent Test I. The test is classed as in vivo. To be noted: preemergence. The procedure:
as §1

The test system of test [6] is SETFA: giant foxtail (Setaria faberi). As to the kind of experiment: Pre-Emergent Test I. To be noted: preemergence. Format: in vivo. The procedure:
as §1

Test [7] concerns AMARE: redroot pigwseed (Amaranthus retroflexus). In words: Pre-Emergent Test I. Format: in vivo. To be noted: preemergence. On the procedure: as §1

Regarding `Cc1c(-c2cc(N)c(Cl)c(C(=O)O)n2)ccc(Cl)c1F` [Compound 52], the “Visual Growth Reduction (%) 21 Days After Application, BROTE” value in test [1] (35 g ai/ha) is reported as “G (0-29)”; in test [1] (70 g ai/ha) it was “F (30-44)”; in test [1] (140 g ai/ha), “D (60-74)”. Besides, the “GR50, BROTE” value in test [1] turned out to be 98 g ai/ha. The “GR80, BROTE” value in test [1] was greater than 140 g ai/ha. Moreover, the “GR90, BROTE” value in test [1] is greater than 140 g ai/ha.
Turning to `COC(=O)c1nc(-c2ccc(C(F)(F)F)nc2)cc(N)c1Cl` [Compound 4], the “Visual Growth Reduction (%) 14 Days After Application, IPOSS” value in test [2] (4 kg ai/ha) is on record as “G (0-29)”. Also, the “Visual Growth Reduction (%) 14 Days After Application, HELAN” value in test [3] (4 kg ai/ha) is “G (0-29)”. Also, the “Visual Growth Reduction (%) 14 Days After Application, AVEFA” value in test [4] (4 kg ai/ha) is recorded as “G (0-29)”. The “Visual Growth Reduction (%) 14 Days After Application, ECHSS” value in test [5] (4 kg ai/ha) is on record as “F (30-44)”. The “Visual Growth Reduction (%) 14 Days After Application, SETFA” value in test [6] (4 kg ai/ha) is recorded as “F (30-44)”. Besides, in test [7] (4 kg ai/ha), the “Visual Growth Reduction (%) 14 Days After Application, AMARE” value was “D (60-74)”.
With `Nc1c(F)c(-c2ccc(C(F)(F)F)nc2)nc(C(=O)O)c1Cl` [Compound 46, 4-amino-5-chloro-3-fluoro-6′-(trifluoromethyl)-[2,3′-bipyridine]-6-carboxylic acid], the “Visual Growth Reduction (%) 21 Days After Application, BROTE” value in test [1] (35 g ai/ha) is listed as “E (45-59)”. For the same molecule, the “Visual Growth Reduction (%) 21 Days After Application, BROTE” value in test [1] (70 g ai/ha) was “D (60-74)”. Also, the “Visual Growth Reduction (%) 21 Days After Application, BROTE” value in test [1] (140 g ai/ha) was “B (85-94)”. Besides, in test [1], the “GR50, BROTE” value is recorded as 42 g ai/ha; the “GR80, BROTE” value is listed as 93 g ai/ha; the “GR90, BROTE” value worked out at 140 g ai/ha.
As for `COC(=O)c1nc(-c2ccc(Cl)nc2F)cc(N)c1Cl` [Compound 17, methyl 4-amino-5,6′-dichloro-2′-fluoro-[2,3′-bipyridine]-6-carboxylate], the “Visual Growth Reduction (%) 14 Days After Application, IPOSS” value in test [2] (3.8 kg ai/ha) was “A (95-100)”. Also, the “Visual Growth Reduction (%) 14 Days After Application, HELAN” value in test [3] (3.8 kg ai/ha) is “A (95-100)”. For the same molecule, in test [4] (3.8 kg ai/ha), the “Visual Growth Reduction (%) 14 Days After Application, AVEFA” value was “G (0-29)”. For the same molecule, the “Visual Growth Reduction (%) 14 Days After Application, ECHSS” value in test [5] (3.8 kg ai/ha) is “F (30-44)”. In addition, in test [6] (3.8 kg ai/ha), the “Visual Growth Reduction (%) 14 Days After Application, SETFA” value was “G (0-29)”. Besides, the “Visual Growth Reduction (%) 14 Days After Application, AMARE” value in test [7] (3.8 kg ai/ha) was “A (95-100)”.
For the molecule `COC(=O)c1nc(-c2ccc(Cl)c(F)c2C)cc(N)c1Cl` [Compound 73], in test [1] (35 g ai/ha), the “Visual Growth Reduction (%) 21 Days After Application, BROTE” value is “E (45-59)”. The “Visual Growth Reduction (%) 21 Days After Application, BROTE” value in test [1] (70 g ai/ha) is reported as “D (60-74)”. Besides, in test [1] (140 g ai/ha), the “Visual Growth Reduction (%) 21 Days After Application, BROTE” value is “D (60-74)”. In addition, in test [1], the “GR50, BROTE” value stood at 59 g ai/ha; the “GR80, BROTE” value is listed as greater than 140 g ai/ha; the “GR90, BROTE” value is listed as greater than 140 g ai/ha.

These data come from patent publication US10765114B2, “4-amino-6-(pyridyl and 2-substitutedphenyl)-picolinates and 6-amino-2-(pyridyl and 2-substitutedphenyl)-pyrimidine-4-carboxylates and their use as herbicides” (Dow AgroSciences LLC, priority 2013, dated 2020).
